Laboratory results published in US10197567B2, “Azoline compound and azole compound library and method for producing same” (The University of Tokyo, priority 2011, dated 2019).
Square brackets hold non-standard residues; d marks the D form. Ends that are not written are not given here. * marks the point of attachment. Dap = NC[C@H](N)C(=O)O; For = O=C*

Tested on: PatD
Test: PatD enzyme reaction: introduction of azoline rings into substrate peptides, mass change read by MALDI-TOF-MS
Type: biochemical, Prochloron didemni
Settings: for Dehydrated molecules: modification with PatD of synthesized substrates (Table 11-2)
Description: After the DNA prepared in 3-2 was transcribed and translated in a cell-free protein expression system of 2.5 μl scale in accordance with the method of Kawakami, et al. (Kawakami et al., Chemistry & Biology 15, 32-42 (2008)) and the solution conditions were adjusted by adding 40 mM Tris-HCl (pH 8.0), 8 mM DTT, 4 mM MgCl2, and 0.8 mM ATP (each, final concentration), recombinant PatD was added.
The reaction was conducted under two conditions as described below.
The mass of the peptide was measured using MALDI-TOF-MS by using sinapinic acid as a matrix and whether a mass change occurred or not by the addition of PatD was checked. The number of azoline rings introduced can be found from the mass change.

Ac—LAELSEEALGDA-GGGGG-VXAXIXFX (X=Dap)-A: synthetic peptide significantly different from a natural substrate (FIG. 17) (Ac-LAELSEEALGDAGGGGGV[Dap]A[Dap]I[Dap]F[Dap]A)
Dehydrated molecules: 4

C1wt: PatE precursor peptide, leader-GLEAS-cassette-AYDGVEPS; cassette VTACITFC, same as wild type PatE (GLEASVTACITFCAYDGVEPS; An example of Recognition Sequence 1 based on Prochloron didemni.; Amino acid sequence of cassette region of wild type PatE; An example of Recognition Sequence 2 based on Prochloron didemni.)
number of azoline rings introduced by PatD (modification with PatD, change in molecular weight by MALDI-TOF-MS): four

PatEC1wt-GS: precursor peptide; cassette VTACITFC, recognition sequence 2 AYDGVGSGSGS (GLEASVTACITFCAYDGVGSGSGS; An example of Recognition Sequence 1 based on Prochloron didemni.; Amino acid sequence of cassette region of wild type PatE; An example of Recognition Sequence 2 based on Prochloron didemni.)
number of heterocycles in C-terminal short peptide (treated with PatD and Glu-C, leader sequence cleaved): four

fMLAELSEEALGDA-GGGGG-VXAX (X=Dap)-A: PatD substrate with shortened leader, GGGGG and Dap in the cassette (For-MLAELSEEALGDAGGGGGV[Dap]A[Dap]A)
Dehydrated molecules: 1

fMLAELSEEALGDA-GGGGG-VXAX (X=PhSer)-A: PatD substrate with shortened leader, GGGGG and PhSer in the cassette (For-MLAELSEEALGDAGGGGGV[PhSer]A[PhSer]A)
Dehydrated molecules: 1

fMNKKNILPQQGQPVIRLTAGQLSSQLAELSEEALGDA-GLEAS-LCGCTSYCYTVS-AYDGV: PatD substrate: leader, recognition sequence 1, cassette, recognition sequence 2 (For-MNKKNILPQQGQPVIRLTAGQLSSQLAELSEEALGDAGLEASLCGCTSYCYTVSAYDGV; cysteine pairing not given here)
Dehydrated molecules: 2

fMNKKNILPQQGQPVIRLTAGQLSSQLAELSEEALGDA-GLEAS-VXAX (X=Dap)-AYDGVEPS: PatD substrate with Dap in the cassette (For-MNKKNILPQQGQPVIRLTAGQLSSQLAELSEEALGDAGLEASV[Dap]A[Dap]AYDGVEPS)
Dehydrated molecules: 2
